In the supplement of paper PMC10331698:
± gives the standard deviation of the averaged measurements.

Assays:
Experiment in all cases: level (log10 ratio to DMSO vehicle control); higher = higher biomarker level / cell amount than vehicle control
[1] = compound: O=C(O)C(F)(F)OC(F)(F)C(F)(F)OC(F)(F)C(F)(F)OC(F)(F)C(F)(F)C(F)(F)C(F)(F)F [Perfluoro-3,6,9-trioxatridecanoic acid] (in DMSO); conditions: 6700 nM
Protocol: (§1)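 BioMAP Diversity Plus panel of 12 human primary cell co-culture systems (3C, 4H, LPS, SAg, BT, BF4T, BE3C, CASM3C, HDF3CGF, KF3CT, MyoF, Mphg). Compounds were added 1 h before stimulation and left for 24 h (MyoF 48 h; BT 72 h for soluble read-outs or 6 d for IgG). Biomarkers were read by ELISA, cytotoxicity by SRB, PBMC viability and proliferation by Alamar Blue. Each well value was divided by the mean of 8 DMSO control wells on the same plate and log10 transformed; duplicate blinded samples were tested at 4 concentrations.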

Perfluoroundecanoic acid = compound: O=C(O)C(F)(F)C(F)(F)C(F)(F)C(F)(F)C(F)(F)C(F)(F)C(F)(F)C(F)(F)C(F)(F)C(F)(F)F [Perfluoroundecanoic acid] (in DMSO); conditions: 6700 nM
Protocol: as §1

[2] = compound: O=C(O)C=C(C(F)(F)F)C(F)(F)F [3,3-Bis(trifluoromethyl)-2-propenoic acid] (in DMSO)
Protocol: as §1

[3] = compound: CN(C(=O)C(F)(F)C(F)(F)C(F)(F)F)[Si](C)(C)C [N-Methyl-N-trimethylsilylheptafluorobutyramide] (in DMSO)
Protocol: as §1

[4] = compound: OCCC(F)(F)C(F)(F)C(F)(F)C(F)(F)F [4:2 Fluorotelomer alcohol] (in DMSO)
Protocol: as §1

[5] = compound: CO[Si](C)(CCC(F)(F)C(F)(F)C(F)(F)C(F)(F)C(F)(F)C(F)(F)F)OC [Dimethoxymethyl((perfluorohexyl)ethyl)silane] (in DMSO)
Protocol: as §1

[6] = compound: O=C(O)C(F)(OC(F)(F)C(F)(OC(F)(F)C(F)(OC(F)(F)C(F)(F)C(F)(F)F)C(F)(F)F)C(F)(F)F)C(F)(F)F [Perfluoro-(2,5,8-trimethyl-3,6,9-trioxadodecanoic)acid] (in DMSO)
Protocol: as §1

[7] = compound: C[C@@H]1C[C@H]2[C@@H]3CCC4=CC(=O)C=C[C@]4(C)[C@@]3(F)[C@@H](O)C[C@]2(C)[C@@]1(O)C(=O)COP(=O)(O)O [Dexamethasone sodium phosphate] (in DMSO)
Protocol: as §1

Test System	level (log10) [1]	level (log10) (Perfluoroundecanoic acid)	level (log10) ([2]; 6700 nM)	level (log10) ([2]; 20000 nM)	level (log10) ([2]; 60000 nM)	level (log10) ([3]; 6700 nM)	level (log10) ([3]; 20000 nM)	level (log10) ([3]; 60000 nM)	level (log10) ([4]; 6700 nM)	level (log10) ([4]; 20000 nM)	level (log10) ([4]; 60000 nM)	level (log10) ([5]; 6700 nM)	level (log10) ([5]; 20000 nM)	level (log10) ([6]; 1100 nM)	level (log10) ([6]; 3300 nM)	level (log10) ([6]; 10000 nM)	level (log10) ([7]; 1500 nM)	level (log10) ([7]; 4400 nM)	level (log10) ([7]; 13000 nM)	level (log10) ([7]; 40000 nM)
3C:CCL2/MCP-1	0.0155 ± 0.021	0.009 ± 0.0042	0.001 ± 0.011	-0.0065 ± 0.0064	0.0015 ± 0.037	-0.009 ± 0.014	-0.0075 ± 0.0064	0.0005 ± 0.016	-0.0545 ± 0.074	-0.0225 ± 0.044	0.032 ± 0.011	-0.0005 ± 0.0021	0.012 ± 0.0042	-0.0075 ± 0.0035	-0.0195 ± 0.00071	0.001 ± 0.034	0.012 ± 0.013	-0.0125 ± 0.005	-0.0155 ± 0.00071	-0.004 ± 0.013
3C:CD54/ICAM-1	0.0005 ± 0.021	-0.009 ± 0.0042	-0.002 ± 0.0071	-0.018 ± 0.0071	-0.0095 ± 0.018	-0.0045 ± 0.022	-0.014 ± 0.0042	0.015 ± 0.011	-0.025 ± 0.018	-0.018 ± 0.017	0.006 ± 0.0042	-0.008 ± 0.0085	0.0265 ± 0.016	0.007 ± 0.02	-0.0005 ± 0.00071	0.0185 ± 0.0064	-0.006 ± 0.04	-0.019 ± 0.013	-0.0145 ± 0.022	-0.0125 ± 0.00071
3C:CD62E/E-Selectin	-0.0355 ± 0.0092	-0.0135 ± 0.04	-0.044 ± 0.0057	-0.081	-0.123 ± 0.026	-0.0115 ± 0.015	-0.007 ± 0.0042	0.0015 ± 0.037	-0.019 ± 0.021	-0.012 ± 0.0014	-0.0105 ± 0.0078	-0.023 ± 0.0042	-0.0235 ± 0.005	-0.0005 ± 0.016	-0.0035 ± 0.005	0.019 ± 0.0071	-0.0055 ± 0.011	-0.024 ± 0.024	-0.005 ± 0.024	0.0005 ± 0.0078
3C:CD106/VCAM-1	-0.0335 ± 0.023	-0.001 ± 0.044	-0.0575 ± 0.03	-0.0805 ± 0.025	-0.157 ± 0.017	-0.0245 ± 0.0021	-0.01 ± 0.016	0.0025 ± 0.012	-0.0205 ± 0.016	-0.011 ± 0.011	-0.0095 ± 0.011	-0.0115 ± 0.035	-0.009 ± 0.024	-0.0075 ± 0.022	-0.0055 ± 0.028	-0.0005 ± 0.028	0.0035 ± 0.043	-0.009 ± 0.016	-0.031 ± 0.017	-0.0265 ± 0.0064
3C:CD141/Thrombomodulin	-0.0155 ± 0.0021	-0.023 ± 0.047	0.023 ± 0.0057	0.0025 ± 0.00071	0.0215 ± 0.037	-0.024 ± 0.016	-0.022 ± 0.014	-0.0115 ± 0.0092	-0.0175 ± 0.013	-0.001 ± 0.0085	-0.0005 ± 0.019	-0.0035 ± 0.0021	-0.0275 ± 0.025	-0.0035 ± 0.026	-0.0185 ± 0.029	-0.01 ± 0.035	0.0105 ± 0.074	-0.015 ± 0.052	-0.0055 ± 0.04	-0.045 ± 0.062
3C:CD142/Tissue Factor	-0.0085 ± 0.03	-0.008 ± 0.016	0.0445 ± 0.018	-0.022 ± 0.037	-0.138 ± 0.052	0.0195 ± 0.044	0.02 ± 0.013	0.026 ± 0.033	-0.016 ± 0.018	-0.04 ± 0.045	-0.0375 ± 0.00071	0.015 ± 0.02	0.021 ± 0.033	-0.013 ± 0.0042	-0.0055 ± 0.015	-0.005 ± 0.013	0.034 ± 0.038	0.0265 ± 0.015	0.0335 ± 0.0078	0.0775 ± 0.028
BE3C:Keratin 8/18	-0.293 ± 0.032	-0.045 ± 0.023	-0.001 ± 0.0014	-0.0025 ± 0.005	0.014 ± 0.031	-0.013 ± 0.023	0.001 ± 0.013	0.019 ± 0.0085	-0.034 ± 0.057	-0.02 ± 0.02	0.0085 ± 0.026	0.0155 ± 0.011	0.0075 ± 0.005	-0.0165 ± 0.028	-0.0085 ± 0.022	-0.001 ± 0.038	0.0045 ± 0.012	0.0035 ± 0.00071	-0.025 ± 0.0042	-0.0165 ± 0.0064
BE3C:MMP-1	-0.471 ± 0.023	0.135 ± 0.011	-0.066 ± 0.0099	-0.0425 ± 0.005	0.0305 ± 0.073	-0.0015 ± 0.011	-0.02 ± 0.0071	0.0295 ± 0.033	-0.023 ± 0.078	-0.023 ± 0.058	0.0145 ± 0.0064	-0.0085 ± 0.03	0.034 ± 0.033	-0.0135 ± 0.00071	-0.0175 ± 0.018	0.0135 ± 0.022	-0.113 ± 0.059	-0.0825 ± 0.11	-0.137 ± 0.052	-0.141 ± 0.069
BE3C:MMP-9	-0.4295 ± 0.0021	-0.139 ± 0.013	-0.0425 ± 0.005	-0.0735 ± 0.0021	-0.079 ± 0.027	-0.023 ± 0.0042	-0.012 ± 0.0085	0.015 ± 0.02	0.0015 ± 0.0078	-0.014 ± 0.013	0.009 ± 0.011	-0.006 ± 0.0042	-0.017 ± 0.013	-0.0155 ± 0.0092	-0.011 ± 0.0071	-0.0145 ± 0.011	-0.02 ± 0.0028	-0.0185 ± 0.013	-0.013 ± 0.0028	-0.036 ± 0.0099
BE3C:PAI-I	-0.526 ± 0.018	-0.292 ± 0.023	-0.043 ± 0.0042	-0.0315 ± 0.005	-0.0085 ± 0.032	-0.0045 ± 0.047	-0.013 ± 0.017	-0.012 ± 0.02	-0.0355 ± 0.023	-0.03 ± 0.045	0.0365 ± 0.016	0.009 ± 0.033	-0.0245 ± 0.023	-0.0265 ± 0.036	-0.0315 ± 0.022	0.006 ± 0.064	0.0905 ± 0.025	0.109 ± 0.016	0.098 ± 0.028	0.0635 ± 0.054
BE3C:SRB	-0.231 ± 0.012	-0.0555 ± 0.012	-0.005 ± 0.0042	-0.0025 ± 0.0035	0.01 ± 0.0057	-0.006 ± 0.0057	-0.003 ± 0.0028	0 ± 0.0028	-0.004	-0.001 ± 0.0014	-0.0005 ± 0.005	-0.0035 ± 0.0035	-0.003 ± 0.0042	-0.0015 ± 0.0021	-0.0075 ± 0.0035	0.0105 ± 0.015	0.0135 ± 0.013	0.003 ± 0.0014	0.002 ± 0.0014	0.0115 ± 0.0064
BE3C:tPA	-0.452 ± 0.005	0.003 ± 0.0028	-0.16 ± 0.041	-0.166 ± 0.0042	-0.179 ± 0.073	-0.018 ± 0.025	-0.0275 ± 0.0064	-0.0195 ± 0.011	-0.0115 ± 0.0035	-0.015	0.013 ± 0.016	0.0005 ± 0.026	-0.026 ± 0.037	-0.0035 ± 0.025	0.0075 ± 0.023	0.017 ± 0.04	-0.149 ± 0.029	-0.175 ± 0.013	-0.219 ± 0.062	-0.197 ± 0.0035
BE3C:uPA	-0.349 ± 0.005	0.0255 ± 0.00071	-0.0205 ± 0.011	-0.015 ± 0.0099	-0.0045 ± 0.018	0.0045 ± 0.032	-0.0105 ± 0.026	0.015 ± 0.0071	-0.032 ± 0.065	-0.014 ± 0.058	0.014 ± 0.027	0.0115 ± 0.011	-0.0055 ± 0.013	0.0025 ± 0.0064	-0.011 ± 0.0014	-0.0025 ± 0.019	-0.0165 ± 0.005	-0.0125 ± 0.021	-0.036 ± 0.027	-0.051 ± 0.038
